According to PubChem BioAssay AID330 (DTP/NCI, 2004):
Where “and” joins values, the source holds several entries; their conditions need not be identical. Identical values can stand only once. Toxic doses and inconclusive results are not listed. The calls were made as follows: active = survival T/C of 150% or more; inactive = T/C below 125% in these data.

Tested on: P388 leukemia ip, CD2F1 mice, survival T/C
Test: NCI In Vivo Anticancer Drug Screen. Data for tumor model P388 Leukemia (intraperitoneal) in CD2F1 (CDF1) mice
Conditions: endpoint: median survival time, higher = longer survival
Method in brief: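 Mice carrying the transplanted tumor received test compound or vehicle. Survival was recorded in each group, and the value is the treated-group measurement divided by that of the vehicle-treated control group.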

[1] = dose: 50.0 mg/kg/injection, schedule: Q01DX005 (ip), vehicle: saline with Tween-80
[2] = dose: 100.0 mg/kg/injection, schedule: Q01DX005 (ip), vehicle: saline with Tween-80
[3] = dose: 50.0 mg/kg/injection, schedule: Q01DX009 (ip), vehicle: saline with Tween-80
[4] = dose: 100.0 mg/kg/injection, schedule: Q01DX009 (ip), vehicle: saline with Tween-80
[5] = dose: 6.25 mg/kg/injection, schedule: Q01DX009 (ip), vehicle: other
[6] = dose: 12.5 mg/kg/injection, schedule: Q01DX009 (ip), vehicle: other
[7] = dose: 25.0 mg/kg/injection, schedule: Q01DX009 (ip), vehicle: other
[8] = dose: 25.0 mg/kg/injection, schedule: Q01DX009 (ip), vehicle: saline with Tween-80
[9] = dose: 60.0 mg/kg/injection, schedule: Q01DX005 (ip), vehicle: Klucel (hydroxypropylcellulose) (HPC)
[10] = dose: 120.0 mg/kg/injection, schedule: Q01DX005 (ip), vehicle: Klucel (hydroxypropylcellulose) (HPC)
[11] = dose: 240.0 mg/kg/injection, schedule: Q01DX005 (ip), vehicle: Klucel (hydroxypropylcellulose) (HPC)
[12] = dose: 60.0 mg/kg/injection, schedule: Q01DX005 (ip), vehicle: saline with Tween-80
[13] = dose: 120.0 mg/kg/injection, schedule: Q01DX005 (ip), vehicle: saline with Tween-80
[14] = dose: 240.0 mg/kg/injection, schedule: Q01DX005 (ip), vehicle: saline with Tween-80
[15] = dose: 200.0 mg/kg/injection, schedule: Q01DX005 (ip), vehicle: saline with Tween-80
[16] = dose: 50.0 mg/kg/injection, schedule: Q01DX005 (ip), vehicle: Klucel (hydroxypropylcellulose) (HPC)
[17] = dose: 100.0 mg/kg/injection, schedule: Q01DX009 (ip), vehicle: Klucel (hydroxypropylcellulose) (HPC)
[18] = dose: 200.0 mg/kg/injection, schedule: Q01DX009 (ip), vehicle: Klucel (hydroxypropylcellulose) (HPC)
[19] = dose: 50.0 mg/kg/injection, schedule: Q01DX009 (ip), vehicle: Klucel (hydroxypropylcellulose) (HPC)

Measured: T/C

COC(=O)C(NC(=O)C(CO)N1C(=O)c2ccccc2C1=O)c1ccccc1 (stereo unspecified)
inactive: [1] 99 % of control | [2] 98 % of control

CC(C)(C)N=C(CCN1CCN(c2ccccc2)CC1)Nc1c(Cl)cccc1Cl
inactive: dose: 12.5 mg/kg/injection, schedule: Q01DX009 (ip), vehicle: saline 91 % of control | dose: 25.0 mg/kg/injection, schedule: Q01DX009 (ip), vehicle: saline 97 % of control | [3] 94 % of control | dose: 50.0 mg/kg/injection, schedule: Q01DX009 (ip), vehicle: saline 100 % of control | [4] 96 % of control

COc1cc2ccc(/C=C\[N+](=O)[O-])cc2cc1OC
inactive: dose: 3.13 mg/kg/injection, schedule: Q01DX009 (ip), vehicle: other 105 % of control | [5] 108 % of control | [6] 107 % of control | [7] 108 % of control

O=c1[nH]c(O)c(N=Nc2ccc([N+](=O)[O-])cc2[N+](=O)[O-])c(=O)[nH]1
inactive: [8] 113 % of control | [3] 102 % of control (2×) and 114 % of control | [4] 103 % of control and 112 % of control | dose: 200.0 mg/kg/injection, schedule: Q01DX009 (ip), vehicle: saline with Tween-80 102 % of control and 111 % of control

CCOC1(OCC)C(=O)N(c2ccc(Cl)c(Cl)c2)C(=O)N1c1ccc(Cl)c(Cl)c1
inactive: dose: 100.0 mg/kg/injection, schedule: Q04DX003 (ip), vehicle: saline 95 % of control | dose: 200.0 mg/kg/injection, schedule: Q04DX003 (ip), vehicle: saline 92 % of control | dose: 400.0 mg/kg/injection, schedule: Q04DX003 (ip), vehicle: saline 89 % of control

CCc1[nH]nc(-c2n[nH]c(CC)c2C)c1C
inactive: dose: 60.0 mg/kg/injection, schedule: Q01DX005 (ip), vehicle: saline 100 % of control | dose: 120.0 mg/kg/injection, schedule: Q01DX005 (ip), vehicle: saline 102 % of control | dose: 240.0 mg/kg/injection, schedule: Q01DX005 (ip), vehicle: saline 98 % of control

CCC1(O)C(=O)c2ccccc2N(c2ccccc2)C1=O (stereo unspecified)
inactive: [9] 91 % of control | [10] 90 % of control | [11] 90 % of control

O/N=C/C(=Nc1ccccc1N=C(/C=N/O)NO)NO
inactive: [12] 95 % of control | [13] 103 % of control | [14] 94 % of control

C=CC1=C(C)c2cc3[n-]c(c(CC(=O)O)c4nc(cc5[n-]c(cc1n2)c(C)c5CC)C(C)=C4C(=O)O)C(CCC(=O)O)C3C.[Pt+2] (stereo unspecified)
inactive: dose: 25.0 mg/kg/injection, schedule: Q04DX002 (ip), vehicle: saline 96 % of control | dose: 50.0 mg/kg/injection, schedule: Q04DX002 (ip), vehicle: saline 99 % of control | dose: 100.0 mg/kg/injection, schedule: Q04DX002 (ip), vehicle: saline 97 % of control | dose: 200.0 mg/kg/injection, schedule: Q04DX002 (ip), vehicle: saline 88 % of control | dose: 400.0 mg/kg/injection, schedule: Q04DX002 (ip), vehicle: saline 90 % of control

Cc1nc(Nc2ccccc2)c2c(C)c(C)[nH]c2n1
inactive: [12] 103 % of control | [13] 102 % of control | [14] 98 % of control

O=C(NC1c2ccccc2Oc2ccccc21)c1ccc([N+](=O)[O-])cc1
inactive: [1] 102 % of control | [2] 93 % of control | [15] 91 % of control

COc1cc2c3c(cccc3c1)C(=O)N(CCN1CCCC1)C2=O
inactive: dose: 17.3 mg/kg/injection, schedule: Q01DX009 (ip), vehicle: saline with Tween-80 112 % of control | dose: 34.7 mg/kg/injection, schedule: Q01DX009 (ip), vehicle: saline with Tween-80 116 % of control | dose: 50.0 mg/kg/injection, schedule: Q04DX003 (ip), vehicle: Klucel (hydroxypropylcellulose) (HPC) 100 % of control | dose: 69.3 mg/kg/injection, schedule: Q01DX009 (ip), vehicle: saline with Tween-80 116 % of control | dose: 100.0 mg/kg/injection, schedule: Q04DX003 (ip), vehicle: Klucel (hydroxypropylcellulose) (HPC) 101 % of control | dose: 200.0 mg/kg/injection, schedule: Q04DX003 (ip), vehicle: Klucel (hydroxypropylcellulose) (HPC) 100 % of control

Cc1nc2ccc(Br)cc2c(=O)n1-c1ccc(-c2n[nH]c(=S)n2-c2ccccc2)cc1
inactive: [16] 102 % of control | dose: 100.0 mg/kg/injection, schedule: Q01DX005 (ip), vehicle: Klucel (hydroxypropylcellulose) (HPC) 104 % of control | dose: 200.0 mg/kg/injection, schedule: Q01DX005 (ip), vehicle: Klucel (hydroxypropylcellulose) (HPC) 104 % of control

CCC(=O)Nc1ccc(C(=O)C(C)O[N+](=O)[O-])cc1 (stereo unspecified)
inactive: [8] 98 % of control | [3] 99 % of control | [4] 100 % of control

COC(=O)CC1(C(=O)OC)Oc2ccc(Br)cc2C(=O)N1c1ccc(Br)cc1Cl (stereo unspecified)
inactive: [1] 96 % of control | [2] 96 % of control | [15] 91 % of control

CC(C)(C)C1CC=CC(=O)CC1 (stereo unspecified)
inactive: [17] 111 % of control | [18] 119 % of control

COc1ccc(C(O)(c2ccccc2)c2ccccc2)c(OC)c1
inactive: [19] 98 % of control | [17] 93 % of control | [18] 95 % of control

C/C(=N\Nc1ccc2ccccc2n1)c1ccccn1
inactive: dose: 12.5 mg/kg/injection, schedule: Q01DX005 (ip), vehicle: Klucel (hydroxypropylcellulose) (HPC) 107 % of control | dose: 25.0 mg/kg/injection, schedule: Q01DX005 (ip), vehicle: Klucel (hydroxypropylcellulose) (HPC) 106 % of control | [16] 114 % of control and 116 % of control

CCOC(=O)Nc1cc(Cl)c2nnn(C(=O)OCC)c2n1
inactive: [5] 105 % of control | dose: 11.0 mg/kg/injection, schedule: Q01DX009 (ip), vehicle: other 103 % of control | [6] 115 % of control | dose: 16.5 mg/kg/injection, schedule: Q01DX009 (ip), vehicle: other 106 % of control | [7] 106 % of control | dose: 37.5 mg/kg/injection, schedule: Q01DX009 (ip), vehicle: other 112 % of control | dose: 50.0 mg/kg/injection, schedule: Q01DX009 (ip), vehicle: other 122 % of control | dose: 100.0 mg/kg/injection, schedule: Q01DX009 (ip), vehicle: other 115 % of control

CCC(=O)N=c1sc(SCc2ccccc2)nn1C(=O)SC (tested in a mixture with another compound)
inactive: [9] 95 % of control | [10] 98 % of control | [11] 90 % of control

CNC(=O)OCc1cn(-c2ccc(Cl)c(Cl)c2)nc1COC(=O)NC
inactive: dose: 0.05 mg/kg/injection, schedule: Q01DX009 (ip), vehicle: distilled water + Tween-80 103 % of control | dose: 0.1 mg/kg/injection, schedule: Q01DX009 (ip), vehicle: distilled water + Tween-80 86 % of control | dose: 0.2 mg/kg/injection, schedule: Q01DX009 (ip), vehicle: distilled water + Tween-80 94 % of control | dose: 0.4 mg/kg/injection, schedule: Q01DX009 (ip), vehicle: distilled water + Tween-80 99 % of control | dose: 3.12 mg/kg/injection, schedule: Q01DX009 (ip), vehicle: distilled water + Tween-80 88 % of control | dose: 25.0 mg/kg/injection, schedule: Q01DX009 (ip), vehicle: distilled water + Tween-80 89 % of control | dose: 50.0 mg/kg/injection, schedule: Q01DX009 (ip), vehicle: distilled water + Tween-80 92 % of control | dose: 100.0 mg/kg/injection, schedule: Q01DX009 (ip), vehicle: distilled water + Tween-80 90 % of control

CCOC(=O)N1CC2C=CC1C(C(=O)OC)=C2C(=O)OC (stereo unspecified)
inactive: [19] 109 % of control | [17] 113 % of control | [18] 113 % of control

Nc1ncnc2c1ncn2C1OC(COC2C(CO)OC(OC(C(=O)O)C(O)C(OP(=O)(O)O)C(O)C(=O)O)C(O)C2O)C(O)C1O (stereo unspecified)
inactive: dose: 0.25 mg/kg/injection, schedule: Q01DX009 (ip), vehicle: saline 96 % of control | dose: 0.5 mg/kg/injection, schedule: Q01DX009 (ip), vehicle: saline 105 % of control | dose: 1.0 mg/kg/injection, schedule: Q01DX009 (ip), vehicle: saline 96 % of control
